Data set [1] in a line: Ex vivo determination of radiometabolites in mouse plasma, liver and brain.
The nature of data set [2]: Stability of formulated [18F]13 by analytical reverse-phase HPLC. The class given is physicochemical. The conditions noted are these: saline/ethanol (9:1, total 10 mL).
A short description of data set [3]: Small-animal PET imaging, baseline brain uptake of [18F]13. The class given is in vivo, mouse.
The target of data set [4] is vesicular acetylcholine transporter (VAChT). The conditions noted are these: read-out: Ki for VAChT; cited from earlier work.
The target in data set [5] is emopamil binding protein (EBP). Conditions: read-out: Ki for EBP; cited from earlier work.
For data set [6] the following is noted: cited from earlier work; for time of maximum uptake in the brain post injection: normal mice.
Data set [7] has as its target S1R. Conditions: read-out: Ki for S1R; cited from earlier work.
The test system of data set [8] is neuronal (α-bungarotoxin insensitive) nicotinic receptors. Nature of the data set: NovaScreen radioligand displacement screen. In kind it is binding. Conditions: 100 nM screening concentration. Background: Displacement assays read how much labelled ligand stays bound in the presence of the test substance.
Data set [9] relates to α2-adrenoceptors. Nature of the data set: NovaScreen radioligand displacement screen. The class given is binding. The conditions noted are these: 100 nM screening concentration.
The nature of data set [10]: In vitro half-life in rat liver microsomes. (Liver microsomes are vesicles of endoplasmic reticulum, rich in cytochrome P450 enzymes.)
Data set [11] concerns opioid receptors. Nature of the data set: Radioligand displacement screen. Conditions: 100 nM screening concentration. In kind it is binding.
Data set [12] has as its system sodium, site 2 channels. Nature of the data set: NovaScreen radioligand displacement screen. In kind it is binding. The conditions noted are these: 100 nM screening concentration.
The target in data set [13] is acetylcholine esterase (Homo sapiens, UniProt P22303). Nature of the data set: NovaScreen radioligand displacement screen. The class given is binding. The conditions noted are these: 100 nM screening concentration.
Sequence of acetylcholine esterase (P22303 32-614): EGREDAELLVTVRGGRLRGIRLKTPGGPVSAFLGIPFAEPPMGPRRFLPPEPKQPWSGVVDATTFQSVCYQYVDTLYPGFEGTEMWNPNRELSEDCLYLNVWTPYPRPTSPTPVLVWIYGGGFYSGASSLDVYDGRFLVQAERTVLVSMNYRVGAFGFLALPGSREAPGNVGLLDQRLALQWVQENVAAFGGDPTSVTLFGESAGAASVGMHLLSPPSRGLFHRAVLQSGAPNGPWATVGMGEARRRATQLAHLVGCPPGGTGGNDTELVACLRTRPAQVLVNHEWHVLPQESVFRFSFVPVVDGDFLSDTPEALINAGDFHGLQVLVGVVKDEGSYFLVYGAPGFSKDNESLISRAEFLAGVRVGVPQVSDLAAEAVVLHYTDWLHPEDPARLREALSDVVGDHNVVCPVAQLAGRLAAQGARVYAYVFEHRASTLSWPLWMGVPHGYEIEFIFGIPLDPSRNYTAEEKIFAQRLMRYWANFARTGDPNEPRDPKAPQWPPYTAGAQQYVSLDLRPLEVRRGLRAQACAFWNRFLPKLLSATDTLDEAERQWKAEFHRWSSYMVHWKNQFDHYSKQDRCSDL
The test system of data set [14] is peripheral muscarinic receptors. Nature of the data set: NovaScreen radioligand displacement screen. In kind it is binding. Conditions: 100 nM screening concentration.
For data set [15], the system named is 59 targets (non-SR sites). Nature of the data set: NovaScreen and in-house profile of 59 targets. In kind it is binding. Conditions: 10,000 nM screening concentration.
Data set [16] deals with calcium L type channels. Nature of the data set: NovaScreen radioligand displacement screen. The class given is binding. Conditions: 100 nM screening concentration.
Data set [17] concerns the target S1Rs (Mus musculus, UniProt O55242). Nature of the data set: Small-animal PET blocking studies of [18F]13 binding in brain. In kind it is in vivo. Conditions: pre-treatment 1 mg/kg, 10 min prior to iv [18F]13, whole mouse brain.

Structures are written as SMILES. Structures can show the parent of a compound that is named as a salt.

As a reminder, the Ki is the equilibrium dissociation constant of an inhibitor or competing ligand from its target.

Sequence of S1Rs (O55242 whole entry): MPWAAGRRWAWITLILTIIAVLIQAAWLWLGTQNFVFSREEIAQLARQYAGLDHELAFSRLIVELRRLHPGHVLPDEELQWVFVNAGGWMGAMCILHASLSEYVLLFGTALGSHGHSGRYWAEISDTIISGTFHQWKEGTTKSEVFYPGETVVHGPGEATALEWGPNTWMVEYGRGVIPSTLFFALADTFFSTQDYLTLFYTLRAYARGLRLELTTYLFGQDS

On to `O=c1sc2cc(CCCF)ccc2n1CCN1CCCCCC1` [[^18F]13, 6-(3-fluoropropyl)-3-(2-(azepan-1-yl)ethyl)benzo[d]thiazol-2(3H)-one], for which the “percentage of intact tracer in plasma” value in data set [1] (30 min post administration) turned out to be 60%; in data set [1] (60 min post administration), 50%. Further, in [1] (throughout the study (30 and 60 min)), the “percentage of intact tracer in brain” value is 100%. Further, in data set [2], the “time formulated tracer shown to be stable” value is given as “at least 5.5 hours”. In data set [3] (baseline TAC, whole mouse brain), the “brain uptake at 60 min” value is given as 6 %ID/g. Further, in data set [3] (baseline TAC, whole mouse brain, within the first few minutes), the “maximum uptake in brain” value was ~ 17 %ID/g. In data set [3] (mouse brain), the “brain uptake at 60 min post injection as percent of maximum” value is reported as 65%.

Turning to `COc1cc(CCN2CCN(CCCc3ccccc3)CC2)ccc1O[11CH3]` [compound 3], the Ki in [4] was 50 nM; in data set [5] it was 1.7 nM.

For `COc1cc(CCN2CCN(CCCc3ccccc3)CC2)ccc1OC[18F]` [compound 4], the “time of maximum uptake in the brain post injection” value in data set [6] was 30 min.

In the case of `FCCC1OC2(CCN(Cc3ccccc3)CC2)c2ccccc21` (centres unmarked) [compound 8], the “brain level at 60 min post injection as percent of maximum” value in [6] (mouse brain, biodistribution) is given as 81%. Also, the “time of maximum uptake in the brain post injection” value in [6] is 30 min.

In the case of `CCCc1ccc2c(c1)sc(=O)n2CCN1CCCCCC1` [compound 9], the Ki in data set [7] is 0.56 nM.

For `O=c1sc2cc(CCCF)ccc2n1CCN1CCCCCC1` [compound 13, 3-(2-(azepan-1-yl)ethyl)-6-(3-fluoropropyl)benzo[d]thiazol-2(3H)-one hydrochloride], the “displacement of the radioligand” value in data set [8], in [9], in [11], in data set [12], in [13] and in [14] was less than 50% in each case. The “displacement of the radioligand” value in data set [15] and in [16] was less than 50% each time. The same molecule yielded a clearance in data set [10] of 0.18 mL/min/g.

Regarding `CN(C)CCN(C)CCc1ccc(Cl)c(Cl)c1` [compound 18, N-[2-(3,4-dichlorophenyl)ethyl]-N-methyl-2-(dimethylamino)-ethylamine], the “reduction of [18F]13 binding in the brain at 60 min” value in data set [17] is on record as 81%.

The values above are taken from paper PMC4106900 (Journal of medicinal chemistry, 2012).
